What was measured:
[1] = system: MES-SA human uterine cells; assay: Proliferation of MES-SA cells with ascorbate and texaphyrin (MTT); assay type: cell-based; settings: ascorbate at or below 333 μM, absence of texaphyrin
Experimental: The proliferation of MES-SA human uterine cells (Harker, W. G.; MacKintosh, F. R.; Sikic, B. I. Cancer Res. 1983, 43, 4943-4950) grown in RPMI-1640 medium in the presence of ascorbate or complex was used to assess the formation of hydrogen peroxide under cell culture conditions.
(§1) 5A. Materials and Methods. MES-SA cells were allowed to adhere to (4) 96-well microtiter plates (4000 cells per well) overnight in 160 μL RPMI medium. Stock ascorbate 3.0 mM in medium (80 μL) was serially diluted (1:3) in rows B through F (discarding the final 80 μL). Row G was used for no-ascorbate control. Stock solutions of GdTex (2 mM in 5% mannitol) diluted in medium and 5% mannitol were prepared and added to the plates to give a final volume of 200 μL in all wells. Columns 2 and 3 contained 100 μM GdTex; columns 4 and 5 contained 75 μM GdTex, columns 6 and 7 contained 50 μM GdTex; columns 8 and 9 contained 25 μM GdTex; and columns 10 and 11 contained no GdTex (all concentrations final). Final mannitol concentration was 0.25% in all wells. The plates were incubated at 37 C under a 5% CO2/95% air atmosphere. Complex-containing medium was exchanged for fresh medium after 5 hours, and plates were incubated an additional 72 hours prior to analysis for viability using the tetrazolium dye, MTT (Mosmann, T. J. Immunol. Methods 1983, 65, 55-63). In brief, 20 μL MTT dye (Sigma Chemical, St. Louis, Mo., catalogue no. M 2128, 5 mg/mL solution in phosphate buffered saline) was added to cells in media to give a final volume of 200 μL. The plates were incubated at 37° C. for ca. 2 hours, whereupon the media was removed and isopropyl alcohol (100 μL/well) was added. Plates were vortexed for ca. 3 minutes to dissolve MTT formazan, then read on a microplate reader at 560-650 nm. Plate absorbances were normalized to wells containing neither ascorbate nor GdTex to allow plate to plate comparison. Data for each concentration of GdTex and ascorbate is the average of eight wells.
The proliferation of MES-SA human uterine cells grown in RPMI-1640 medium in the presence of ascorbate and LuTex was used to assess the production of hydrogen peroxide under cell culture conditions following the protocol outlined in the previous example.

[2] = system: MES-SA human uterine cells; assay: Proliferation of MES-SA cells with BSO and GdTex (MTT); assay type: cell-based; settings: Homo sapiens, MES-SA; absence of GdTex, highest (50 μM) concentration tested, ca. 72 hours; read-out: inhibitory effect of BSO alone
Experimental: The proliferation of MES-SA human uterine cells grown in McCoys 5A medium in the presence of a thiol depleting agent (BSO) or GdTex was used to assess the combined effect of these agents. The protocol outlined in the previous example was followed, with the following changes:
1. The serially diluted compound was 200 μM BSO (Sigma Chemical, St. Louis, Mo., catalogue no. G1404).
2. The cells were allowed to incubate in the presence of the two drugs for ca. 72 hours, prior to exchange of media and analysis using the colorimetric (MTT) assay, as described, e.g., in Example 5.

MES-SA cells [3] = assay: Response of MES-SA cells to ionizing radiation, microtiter plate format (MTT); assay type: cell-based, human; settings: BSO 0 to 100 μM and higher, data not shown
Experimental: The response of MES-SA cells to ionizing radiation was studied using the microtiter plate format to confirm radiation sensitization potential. This assay is used to assess rapidly the effects of irradiation under a variety of conditions.
10A. Materials and Methods. MES-SA cells were incubated at 37° C. and allowed to adhere to 96-well microtiter plates (1000 cells per well) overnight in 160 μL McCoys 5A containing 10% FBS (Gibco-BRL) and ca. 2% penicillin/streptomycin solution (Sigma). BSO or media (20 μL) was added, respectively to test and control wells, 24 h prior to irradiation. Metallotexaphyrin complex (up to 100 μM) was added to the test wells to give a final volume of 200 μL, 18-24 h prior to irradiation. Plates were irradiated using a 137Cs irradiator (Model 40 Gammacell, J. L. Shepherd & Assoc., San Fernando, Calif.) at a dose rate of 33.25 Rad/min. A lead brick (2″ diameter) was positioned to protect a column of wells (no. 11) from ionizing radiation. Plate absorbances were normalized to shielded wells to allow plate-to-plate comparison. […] Reversing the position of texaphyrin complex-containing wells had no effect on assay outcome. Medium was exchanged immediately after irradiation, and plates were incubated an additional 120 h prior to analysis for viability using the MTT assay (as described, e.g., in Example 5).

MES-SA cells [4] = assay: Radiation sensitization by clonogenic assay; assay type: cell-based, human; settings: 50 μM GdTex or 100 μM BSO for 24 h prior to irradiation, ascorbate-containing medium
Experimental: The response of MES-SA cells to ionizing radiation was studied using a clonogenic assay format to confirm radiation sensitization potential.
Materials and Methods. MES-SA cells (200 to 5,000 cells per dish) were plated in T-25 flasks in 8.5 mL McCoys 5A containing 10% FBS (Gibco-BRL) and ca. 2% penicillin/streptomycin solution (Sigma) and incubated at 37° C. overnight. Stock BSO, ascorbate, GdTex (or a control 5% mannitol) solutions were prepared and 0.5 mL of each added to each flask to give a final volume of 10 mL (final concentrations of BSO, ascorbate and GdTex were 100 μM, 5 μM and 50 μM, respectively) and the cells incubated for 24 hr, whereupon the flasks were irradiated using a 137Cs irradiator (Model 40 Gammacell, J. L. Shepherd & Assoc., San Fernando, Calif.) at a dose rate of 0.805 Gy/min. Medium was removed immediately after irradiation, the cells were washed with fresh medium (5.0 mL) followed by the addition of fresh medium (10 mL) and incubation for an additional 11 days. Colonies were fixed and stained with 1% crystal violet and then counted.

[5] = system: EMT-6 mouse mammary sarcoma cells; assay: Proliferation of EMT-6 cells with NADPH and texaphyrin (MTT); assay type: cell-based; settings: NADPH at or below 1000 μM, absence of texaphyrin
Experimental: as §1
(§2) The proliferation of EMT-6 mouse mammary sarcoma (Rockwell, S. C., et al., J. Natl. Cancer Inst. 1972, 49, 735-749) cells grown in RPMI-1640 medium in the presence of NADPH and motexafin lutetium was used to assess the production of hydrogen peroxide under cell culture conditions following the protocol outlined in the previous example.
as §2, with “GdTex” for “motexafin lutetium”

Q: How did the “inhibitory effect on cell proliferation, ascorbate alone” value [1] turn out when `O=C1O[C@H]([C@@H](O)CO)C(O)=C1O` [Ascorbate, ascorbic acid, reference compound] was run?
A: The value was “no inhibitory effect”.

Q: Which results are given for `CCCCS(=N)(=O)CC[C@H](N)C(=O)O` (stereo partly drawn) [BSO, L-Buthionine-[S,R]-Sulfoximine, reference compound]?
A: inhibition at 50 µM [2]: ~10%; effect of BSO on GdTex radiation sensitization (MES-SA cells [3]): dose-dependent from 0 to 100 μM, and leveled off at higher BSO concentrations; effect on clonogenic survival as a function of radiation, single agent (MES-SA cells [4]): relatively small effect on clonogenic survival

Q: For `NC(=O)C1=CN([C@@H]2O[C@H](COP(=O)(O)OP(=O)(O)OC[C@H]3O[C@@H](n4cnc5c(N)ncnc54)[C@H](OP(=O)(O)O)[C@@H]3O)[C@@H](O)[C@H]2O)C=CC1` [NADPH, reference compound], which “inhibitory effect on cell proliferation, NADPH alone” value [5] is on record?
A: Its value is “no inhibitory effect”.

From patent US7579338B2, “Methods and compositions for treating atheroma, tumors and other neoplastic tissues” (Pharmacyclics, Inc., priority 1999, dated 2009)
